Source: paper PMC7938330 (Toxicology in vitro : an international journal published in …, 2020)

Target: Complex V (ATP synthase complex) (Bos taurus, UniProt P00829+P05631+P19483)
Test: immunocapture-based OXPHOS activity assay
Format: biochemical

## C1CCC(C(CC2CCCCN2)C2CCCCC2)CC1 (stereo not shown) [perhexiline]
  IC50: 10 nM
